Experimental data from patent US8883841B2, “Oncogenic ras-specific cytotoxic compound and methods of use thereof” (The Board of Regents of the University of Texas System, priority 2005, dated 2014).
Read-outs that look alike come from different tables or passages of the source.

Columns and labels:
[1] = test system: SR; test: NCI in-vitro testing, SR (Leukemia); format: cell-based
[2] = test system: H460 cells; details: Table 1, value is the negative log10 of mol/L
[3] = test system: HT29; test: NCI in-vitro testing, HT29 (Colon Cancer)
[4] = test system: SF-268; test: NCI in-vitro testing, SF-268 (CNS Cancer)
[5] = test system: SNB-75; test: NCI in-vitro testing, SNB-75 (CNS Cancer)
[6] = test system: SK-MEL-2; test: NCI in-vitro testing, SK-MEL-2 (Melanoma)
[7] = test system: SK-MEL-5; test: NCI in-vitro testing, SK-MEL-5 (Melanoma)
[8] = test system: 786-0; test: NCI in-vitro testing, 786-0 (Renal Cancer)
[9] = test system: SN12C; test: NCI in-vitro testing, SN12C (Renal Cancer)
[10] = test system: RXF 393; test: NCI in-vitro testing, RXF 393 (Renal Cancer)
[11] = test system: COLO 205; test: NCI in-vitro testing, COLO 205 (Colon Cancer)
[12] = test system: OVCAR-5; test: NCI in-vitro testing, OVCAR-5 (Ovarian Cancer)
[13] = In vivo toxicity assay in tumor-bearing nude mice
[14] = test system: MDA-MB-231/ATCC; test: NCI in-vitro testing, MDA-MB-231/ATCC (Breast Cancer)
[15] = test system: HOP-62; test: NCI in-vitro testing, HOP-62 (Non-Small Cell Lung Cancer)

For `O=Cc1cn(Cc2cccc(Cl)c2)c2ccccc12` [Oncrasin K027, 1-(3-chlorobenzyl)-1H-indole-3-carbaldehyde], the TGI [1] was 4.26E−8 Molar, the GI50 ([1]; Homo sapiens) was less than 0.01 µM and the “Percent Growth” value ([1]; Log10 Concentration −4.0 Molar) was −71%. The “Percent Growth” value ([1]; Log10 Concentration −5.0 Molar) was −18%, the “Percent Growth” value ([1]; Log10 Concentration −6.0 Molar) was −71% and the “Percent Growth” value ([1]; Log10 Concentration −7.0 Molar) was −25%. For the same compound, the “Percent Growth” value ([1]; Log10 Concentration −8.0 Molar) was 43%, the “IC50 in H460 cells” value ([2]; listed as K27) was 7 and the “IC50 in H460 cells” value [2] was 8.43. The TGI ([3]; HT29) was 2.01E−6 Molar, the “Percent Growth” value ([3]; HT29, Log10 Concentration −4.0 Molar) was −66% and the “Percent Growth” value ([3]; HT29, Log10 Concentration −5.0 Molar) was 29%. For the same compound, the “Percent Growth” value ([3]; HT29, Log10 Concentration −6.0 Molar) was 68%, the “Percent Growth” value ([3]; HT29, Log10 Concentration −7.0 Molar) was 79% and the “Percent Growth” value ([3]; HT29, Log10 Concentration −8.0 Molar) was 103%. The GI50 ([3]; Homo sapiens, HT-29) was 0.00183 µM, the CC50 ([3]; Homo sapiens, HT-29, read-out: LC50) was 6.76 µM and the GI50 ([4]; Homo sapiens, SF-268) was 1.24 µM. The CC50 ([4]; Homo sapiens, SF-268, read-out: LC50) was greater than 100 µM, the TGI ([4]; SF-268) was 4.58E−5 Molar and the “Percent Growth” value ([4]; SF-268, Log10 Concentration −4.0 Molar) was −30%. For the same compound, the “Percent Growth” value ([4]; SF-268, Log10 Concentration −5.0 Molar) was 58%, the “Percent Growth” value ([4]; SF-268, Log10 Concentration −6.0 Molar) was 94% and the “Percent Growth” value ([4]; SF-268, Log10 Concentration −7.0 Molar) was 93%. The “Percent Growth” value ([4]; SF-268, Log10 Concentration −8.0 Molar) was 106%, the GI50 ([5]; Homo sapiens, SNB-75) was 7.64 µM and the CC50 ([5]; Homo sapiens, SNB-75, read-out: LC50) was 62.8 µM. The TGI ([5]; SNB-75) was 2.31E−5 Molar, the “Percent Growth” value ([5]; SNB-75, Log10 Concentration −4.0 Molar) was −73% and the “Percent Growth” value ([5]; SNB-75, Log10 Concentration −5.0 Molar) was 42%. The “Percent Growth” value ([5]; SNB-75, Log10 Concentration −6.0 Molar) was 112%, the “Percent Growth” value ([5]; SNB-75, Log10 Concentration −7.0 Molar) was 119% and the “Percent Growth” value ([5]; SNB-75, Log10 Concentration −8.0 Molar) was 118%. The GI50 ([6]; Homo sapiens, SK-MEL-2) was 15.8 µM, the CC50 ([6]; Homo sapiens, SK-MEL-2, read-out: LC50) was 48.2 µM and the TGI ([6]; SK-MEL-2) was 5.94E−8 Molar. The “Percent Growth” value ([6]; SK-MEL-2, Log10 Concentration −4.0 Molar) was −64%, the “Percent Growth” value ([6]; SK-MEL-2, Log10 Concentration −5.0 Molar) was −20% and the “Percent Growth” value ([6]; SK-MEL-2, Log10 Concentration −6.0 Molar) was 67%. The “Percent Growth” value ([6]; SK-MEL-2, Log10 Concentration −7.0 Molar) was 84%, the “Percent Growth” value ([6]; SK-MEL-2, Log10 Concentration −8.0 Molar) was 98% and the GI50 ([7]; Homo sapiens, SK-MEL-5) was 4.97 µM. For the same compound, the CC50 ([7]; Homo sapiens, SK-MEL-5, read-out: LC50) was 45.5 µM, the TGI ([7]; SK-MEL-5) was 1.95E−5 Molar and the “Percent Growth” value ([7]; SK-MEL-5, Log10 Concentration −4.0 Molar) was −97%. For the same compound, the “Percent Growth” value ([7]; SK-MEL-5, Log10 Concentration −5.0 Molar) was 40%, the “Percent Growth” value ([7]; SK-MEL-5, Log10 Concentration −6.0 Molar) was 74% and the “Percent Growth” value ([7]; SK-MEL-5, Log10 Concentration −7.0 Molar) was 92%. The “Percent Growth” value ([7]; SK-MEL-5, Log10 Concentration −8.0 Molar) was 95%, the TGI ([8]; 785-0) was 2.19E−5 Molar and the “Percent Growth” value ([8]; 785-0, Log10 Concentration −4.0 Molar) was −52%. For the same compound, the “Percent Growth” value ([8]; 785-0, Log10 Concentration −5.0 Molar) was 27%, the “Percent Growth” value ([8]; 785-0, Log10 Concentration −6.0 Molar) was 70% and the “Percent Growth” value ([8]; 785-0, Log10 Concentration −7.0 Molar) was 88%. The “Percent Growth” value ([8]; 785-0, Log10 Concentration −8.0 Molar) was 69%, the GI50 ([8]; Homo sapiens, 786-0) was 3.4 µM and the CC50 ([8]; Homo sapiens, 786-0, read-out: LC50) was 84.7 µM. For the same compound, the TGI [9] was 1.94E−5 Molar, the GI50 ([9]; Homo sapiens) was 3.56 µM and the CC50 ([9]; Homo sapiens, read-out: LC50) was 67.2 µM. The “Percent Growth” value ([9]; Log10 Concentration −4.0 Molar) was −66%, the “Percent Growth” value ([9]; Log10 Concentration −5.0 Molar) was 27% and the “Percent Growth” value ([9]; Log10 Concentration −6.0 Molar) was 79%. The “Percent Growth” value ([9]; Log10 Concentration −7.0 Molar) was 93%, the “Percent Growth” value ([9]; Log10 Concentration −8.0 Molar) was 97% and the GI50 ([10]; Homo sapiens, RXF 393) was less than 0.01 µM. The CC50 ([10]; Homo sapiens, RXF 393, read-out: LC50) was 23.2 µM, the TGI ([10]; RXF 393) was 2.44E−7 Molar and the “Percent Growth” value ([10]; RXF 393, Log10 Concentration −4.0 Molar) was −85%. For the same compound, the “Percent Growth” value ([10]; RXF 393, Log10 Concentration −5.0 Molar) was −30%, the “Percent Growth” value ([10]; RXF 393, Log10 Concentration −6.0 Molar) was −12% and the “Percent Growth” value ([10]; RXF 393, Log10 Concentration −7.0 Molar) was 7%. For the same compound, the “Percent Growth” value ([10]; RXF 393, Log10 Concentration −8.0 Molar) was 31%, the TGI ([11]; COLO 205) was 1.58E−5 Molar and the “Percent Growth” value ([11]; COLO 205, Log10 Concentration −4.0 Molar) was −72%. The “Percent Growth” value ([11]; COLO 205, Log10 Concentration −5.0 Molar) was 18%, the “Percent Growth” value ([11]; COLO 205, Log10 Concentration −6.0 Molar) was 51% and the “Percent Growth” value ([11]; COLO 205, Log10 Concentration −7.0 Molar) was 93%. The “Percent Growth” value ([11]; COLO 205, Log10 Concentration −8.0 Molar) was 88%, the GI50 ([11]; Homo sapiens, COLO 205) was 1.05 µM and the CC50 ([11]; Homo sapiens, COLO 205, read-out: LC50) was 5.69 µM. The GI50 ([12]; Homo sapiens, OVCAR-5) was less than 0.01 µM, the CC50 ([12]; Homo sapiens, OVCAR-5, read-out: LC50) was greater than 100 µM and the TGI ([12]; OVCAR-5) was 3.72E−7 Molar. The “Percent Growth” value ([12]; OVCAR-5, Log10 Concentration −4.0 Molar) was −50%, the “Percent Growth” value ([12]; OVCAR-5, Log10 Concentration −5.0 Molar) was −23% and the “Percent Growth” value ([12]; OVCAR-5, Log10 Concentration −6.0 Molar) was −7%. For the same compound, the “Percent Growth” value ([12]; OVCAR-5, Log10 Concentration −7.0 Molar) was 10%, the “Percent Growth” value ([12]; OVCAR-5, Log10 Concentration −8.0 Molar) was 43% and the “serum ALT, AST, and creatinine levels” value ([13]; 2 days after the last treatment) was “within the normal range”. For the same compound, the “histopathologic examination of organs” value ([13]; lung, heart, stomach, small intestine, liver, spleen, pancreas, kidney) was “no significant lesions”, the blood cell counts ([13]; red blood cells, white blood cells, platelets) was “all in the normal ranges” and the body weights ([13]; vs solvent) was “No difference”. For the same compound, the GI50 ([14]; Homo sapiens, MDA-MB-231) was 11 µM, the CC50 ([14]; Homo sapiens, MDA-MB-231, read-out: LC50) was greater than 100 µM and the TGI ([14]; MDA-MB-231/ATCC) was 4.23E−5 Molar. For the same compound, the “Percent Growth” value ([14]; MDA-MB-231/ATCC, Log10 Concentration −4.0 Molar) was −32%, the “Percent Growth” value ([14]; MDA-MB-231/ATCC, Log10 Concentration −5.0 Molar) was 55% and the “Percent Growth” value ([14]; MDA-MB-231/ATCC, Log10 Concentration −6.0 Molar) was 109%. For the same compound, the “Percent Growth” value ([14]; MDA-MB-231/ATCC, Log10 Concentration −7.0 Molar) was 120%, the “Percent Growth” value ([14]; MDA-MB-231/ATCC, Log10 Concentration −8.0 Molar) was 105% and the TGI ([15]; HOP-62) was 1.93E−5 Molar. The “Percent Growth” value ([15]; HOP-62, Log10 Concentration −4.0 Molar) was −37%, the “Percent Growth” value ([15]; HOP-62, Log10 Concentration −5.0 Molar) was 15% and the “Percent Growth” value ([15]; HOP-62, Log10 Concentration −6.0 Molar) was 35%. For the same compound, the “Percent Growth” value ([15]; HOP-62, Log10 Concentration −7.0 Molar) was 87%, the “Percent Growth” value ([15]; HOP-62, Log10 Concentration −8.0 Molar) was 91% and the GI50 ([15]; Homo sapiens, HOP-62) was 0.35 µM. It also gave a CC50 ([15]; Homo sapiens, HOP-62, read-out: LC50) greater than 100 µM.
